The structures appear in SMILES notation.

Our source for the IC50 values is patent publication US9512084B2, “Amino pyrimidine derivatives” (Novartis AG, priority 2013, dated 2016).

The target of assay [1] is full-length human recombinant BTK (Homo sapiens (Human), UniProt Q06187). Put plainly: Inhibition of Btk enzymatic activity (biochemical enzyme assay, Caliper). To be noted: 6.4 nM enzyme solution, 164 μM ATP solution, 30° C., 60 minutes. The method, then:
The inhibitory activity of the present compounds against Btk was assessed in a biochemical enzyme assay. […] The assay plates were prepared by addition of 50 nl per well of compound solution in 90% DMSO. […] Kinase reactions were analyzed on a Caliper LC3000 workstation by separating phosphorylated and unphosphorylated peptides and kinase activities were calculated from the amounts of newly formed phospho-peptide.

The next assay deals with Btk (Rattus norvegicus, UniProt Q5S255). In words: Inhibition of Btk activity in blood (in vitro B cell activation assay, CD86, rat whole blood). It is filed as cell-based. To be noted: Lewis rat whole blood diluted to 50%, anti-rat IgM + rat IL-4, 24 hours, CD86 on CD45RA positive B cells. The method, then:
Alternatively, the inhibitory activity of the present compounds in blood was assessed in the following in vitro B cell activation assay. Whole blood was collected from the abdominal aorta of anaesthetized adult male Lewis rats and was anticoagulated with 100 U/ml sodium heparin. Blood was then diluted to 50% with high glucose DMEM (Amimed) supplemented with […] penicillin, […], 2 mM L-glutamin, 50 mg/ml dextran 40 and 5% FCS (Fetaclone I, Gibco). Then, 190 μl prediluted blood was mixed in 96 well U-bottomed microtiter plates (Nunc) with 10 μl of serial dilutions of test compounds in DMSO. […] Activation of B cells was measured by flow cytometry after staining for the B cell subset with PE-Cy5-labeled anti-ratCD45RA (Beckton-Dickinson) and for the activation marker CD86 (PE-labeled anti-rat CD86 (Beckton-Dickinson). All staining procedures were performed at RT for 30 min in the dark in 96-deep well V-bottomed microtiter plates (Corning) with BD Lysing Solution (Beckton-Dickinson).
Cytometric data was acquired on a FACScalibur flow cytometer (BD Biosciences) and the subpopulation of lymphocytes were gated according to size and granularity and further analyzed for expression of CD45RA and the activation markers. Data for the inhibition of B cell activation were calculated from the percentage of cells positively stained for activation markers within the CD45RA positive population.

Sequence of full-length human recombinant BTK (Q06187 whole entry): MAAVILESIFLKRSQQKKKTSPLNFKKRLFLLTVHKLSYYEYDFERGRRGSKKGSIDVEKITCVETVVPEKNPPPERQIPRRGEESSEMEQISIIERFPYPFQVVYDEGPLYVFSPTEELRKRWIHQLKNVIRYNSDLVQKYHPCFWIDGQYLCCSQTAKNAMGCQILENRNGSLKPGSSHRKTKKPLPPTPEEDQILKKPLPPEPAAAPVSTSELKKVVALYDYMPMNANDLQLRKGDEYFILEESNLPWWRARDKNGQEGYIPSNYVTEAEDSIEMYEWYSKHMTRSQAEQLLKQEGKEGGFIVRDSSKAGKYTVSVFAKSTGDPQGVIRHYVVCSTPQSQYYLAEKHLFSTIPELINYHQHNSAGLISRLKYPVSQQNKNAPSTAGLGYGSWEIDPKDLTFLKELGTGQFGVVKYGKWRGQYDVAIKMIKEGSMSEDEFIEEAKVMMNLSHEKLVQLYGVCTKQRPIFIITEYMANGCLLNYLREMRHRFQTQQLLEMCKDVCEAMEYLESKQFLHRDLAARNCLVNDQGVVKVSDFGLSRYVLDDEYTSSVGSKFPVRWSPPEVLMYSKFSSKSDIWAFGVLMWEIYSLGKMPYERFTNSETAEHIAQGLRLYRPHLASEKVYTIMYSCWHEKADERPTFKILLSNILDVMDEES
Sequence of Btk (Q5S255 1-660): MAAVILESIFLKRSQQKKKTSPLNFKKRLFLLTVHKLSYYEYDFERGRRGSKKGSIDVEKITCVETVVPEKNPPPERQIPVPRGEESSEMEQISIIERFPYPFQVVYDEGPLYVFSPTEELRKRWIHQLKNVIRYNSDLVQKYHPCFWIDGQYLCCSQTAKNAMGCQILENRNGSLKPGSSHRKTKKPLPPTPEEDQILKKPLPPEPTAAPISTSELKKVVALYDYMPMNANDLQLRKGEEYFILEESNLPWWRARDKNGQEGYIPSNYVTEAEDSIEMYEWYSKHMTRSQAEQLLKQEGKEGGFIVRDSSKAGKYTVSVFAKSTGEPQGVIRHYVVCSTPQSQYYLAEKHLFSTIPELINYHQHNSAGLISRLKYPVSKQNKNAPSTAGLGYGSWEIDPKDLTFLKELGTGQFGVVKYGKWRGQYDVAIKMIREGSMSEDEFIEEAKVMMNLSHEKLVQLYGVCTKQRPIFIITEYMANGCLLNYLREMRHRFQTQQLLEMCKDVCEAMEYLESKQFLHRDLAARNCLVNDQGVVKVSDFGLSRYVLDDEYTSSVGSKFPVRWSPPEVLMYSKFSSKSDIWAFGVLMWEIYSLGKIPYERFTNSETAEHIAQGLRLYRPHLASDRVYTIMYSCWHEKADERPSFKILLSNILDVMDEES

For `C=CC(=O)N(C)[C@@H](C)COc1c(N)ncnc1-c1cc(F)cc(NC(=O)c2ccc(C3CC3)cc2F)c1C` [Example 19, (S)—N-(3-(6-Amino-5-(2-(N-methylacrylamido)propoxy)pyrimidin-4-yl)-5-fluoro-2-methylphenyl)-4-cyclopropyl-2-fluorobenzamide], the results for the IC50 (in assay [1]; on Btk) were 16 nM and 136 nM, respectively.
For `C=CC(=O)NC1(COc2c(N)ncnc2-c2cc(F)cc(NC(=O)c3ccc(C4CC4)cc3F)c2C)CC1` [Example 16, N-(3-(5-((1-Acrylamidocyclopropyl)methoxy)-6-aminopyrimidin-4-yl)-5-fluoro-2-methylphenyl)-4-cyclopropyl-2-fluorobenzamide] the same measures were 15 nM and 558 nM.
Regarding `CC#CC(=O)N1C[C@@H](OC)C[C@H]1COc1c(N)ncnc1-c1cc(F)cc(NC(=O)c2ccc(C3CC3)cc2F)c1C` [Example 30, N-(3-(6-Amino-5-(((2S,4S)-1-(but-2-ynoyl)-4-methoxypyrrolidin-2-yl)methoxy)pyrimidin-4-yl)-5-fluoro-2-methylphenyl)-4-cyclopropyl-2-fluorobenzamide], the IC50 (in general, the concentration needed to halve the response being measured) in assay [1] is 6 nM; at Btk it was 222 nM.
Turning to `CC#CC(=O)N1C[C@H](OC)C[C@H]1COc1c(N)ncnc1-c1cc(F)cc(NC(=O)c2ccc(C3CC3)cc2F)c1C` [Example 27, N-(3-(6-Amino-5-(((2S,4R)-1-(but-2-ynoyl)-4-methoxypyrrolidin-2-yl)methoxy)pyrimidin-4-yl)-5-fluoro-2-methylphenyl)-4-cyclopropyl-2-fluorobenzamide], the IC50 in assay [1] amounted to 3 nM; on Btk, 76 nM.
As for `C=CC(=O)N1C[C@H](F)C[C@H]1COc1c(N)ncnc1-c1cc(F)cc(NC(=O)c2ccc(C3CC3)cc2F)c1C` [Example 31, N-(3-(5-(((2S,4R)-1-Acryloyl-4-fluoropyrrolidin-2-yl)methoxy)-6-aminopyrimidin-4-yl)-5-fluoro-2-methylphenyl)-4-cyclopropyl-2-fluorobenzamide], the results for the IC50 (in assay [1]; on Btk) were 2 nM and 25 nM, respectively.
For `C#CC(=O)N1CC(Oc2c(N)ncnc2-c2cc(F)cc(NC(=O)c3ccc(C4CC4)cc3F)c2C)C1` [Example 3, N-(3-(6-Amino-5-((1-propioloylazetidin-3-yl)oxy)pyrimidin-4-yl)-5-fluoro-2-methylphenyl)-4-cyclopropyl-2-fluorobenzamide] the same measures were 1 nM and 124 nM.
For `CC#CC(=O)N1CC(Oc2c(N)ncnc2-c2cc(F)cc(NC(=O)c3ccc(C4CC4)cc3F)c2C)C1` [Example 4, N-(3-(6-Amino-5-((1-(but-2-ynoyl)azetidin-3-yl)oxy)pyrimidin-4-yl)-5-fluoro-2-methylphenyl)-4-cyclopropyl-2-fluorobenzamide] the same measures were 9 nM and 376 nM.
Regarding `CC#CC(=O)N1CCC[C@H]1COc1c(N)ncnc1-c1cc(F)cc(NC(=O)c2ccc(C3CC3)cc2F)c1C` [Example 23, (S)—N-(3-(6-Amino-5-((1-(but-2-ynoyl)pyrrolidin-2-yl)methoxy)pyrimidin-4-yl)-5-fluoro-2-methylphenyl)-4-cyclopropyl-2-fluorobenzamide], the IC50 in assay [1] stood at 1 nM; at Btk, 57 nM.
For `C=CC(=O)N(C)CCOc1c(N)ncnc1-c1cccc(-n2ccc3cc(C4CC4)cc(F)c3c2=O)c1` [Example 12, N-(2-((4-Amino-6-(3-(6-cyclopropyl-8-fluoro-1-oxoisoquinolin-2(1H)-yl)phenyl)pyrimidin-5-yl)oxy)ethyl)-N-methylacrylamide] the same measures were 12 nM and 459 nM.
`C=CC(=O)N1C[C@H](C#N)C[C@H]1COc1c(N)ncnc1-c1cc(F)cc(NC(=O)c2ccc(C3CC3)cc2F)c1C` [Example 39, N-(3-(5-(((2S,4R)-1-Acryloyl-4-cyanopyrrolidin-2-yl)methoxy)-6-aminopyrimidin-4-yl)-5-fluoro-2-methylphenyl)-4-cyclopropyl-2-fluorobenzamide]: the IC50 in assay [1] amounted to 1 nM; at Btk it was 176 nM.
For `C=CC(=O)N1CC[C@H]1COc1c(N)ncnc1-c1cc(F)cc(N2CCc3cc(C4CC4)ccc3C2=O)c1CO` [Example 35, (S)-2-(3-(5-((1-Acryloylazetidin-2-yl)methoxy)-6-aminopyrimidin-4-yl)-5-fluoro-2-(hydroxymethyl)phenyl)-6-cyclopropyl-3,4-dihydroisoquinolin-1(2H)-one] the same measures were 2 nM and 72 nM.
For `C=CC(=O)N1CCC[C@H]1COc1c(N)ncnc1-c1cc(F)cc(N2CCc3cc(C4CC4)ccc3C2=O)c1CO` [Example 24, (S)-2-(3-(5-((1-Acryloylpyrrolidin-2-yl)methoxy)-6-aminopyrimidin-4-yl)-5-fluoro-2-(hydroxymethyl)phenyl)-6-cyclopropyl-3,4-dihydroisoquinolin-1(2H)-one] the same measures were 0.5 nM and 32 nM.
For `C=CC(=O)N1C[C@H](OC)C[C@H]1COc1c(N)ncnc1-c1cc(F)cc(N2CCc3cc(C4CC4)ccc3C2=O)c1CO` [Example 28, 2-(3-(5-(((2S,4R)-1-Acryloyl-4-methoxypyrrolidin-2-yl)methoxy)-6-aminopyrimidin-4-yl)-5-fluoro-2-(hydroxymethyl)phenyl)-6-cyclopropyl-3,4-dihydroisoquinolin-1(2H)-one] the same measures were 1 nM and 33 nM.
For the molecule `C=CC(=O)N1CCC[C@@H](COc2c(N)ncnc2-c2cc(F)cc(NC(=O)c3ccc(C4CC4)cc3F)c2C)C1` [Example 37, (R)—N-(3-(5-((1-Acryloylpiperidin-3-yl)methoxy)-6-aminopyrimidin-4-yl)-5-fluoro-2-methylphenyl)-4-cyclopropyl-2-fluorobenzamide], the IC50 in assay [1] amounted to 32 nM; on Btk it was 968 nM.
For `C/C=C/C(=O)N1CC(Oc2c(N)ncnc2-c2cc(F)cc(NC(=O)c3ccc(C4CC4)cc3F)c2C)C1` [Example 2, (E)-N-(3-(6-Amino-5-((1-(but-2-enoyl)azetidin-3-yl)oxy)pyrimidin-4-yl)-5-fluoro-2-methylphenyl)-4-cyclopropyl-2-fluorobenzamide] the same measures were 38 nM and 1110 nM.
For `C=CC(=O)N1C[C@@H](OC)C[C@H]1COc1c(N)ncnc1-c1cc(F)cc(NC(=O)c2ccc(C3CC3)cc2F)c1C` [Example 29, N-(3-(5-(((2S,4S)-1-Acryloyl-4-methoxypyrrolidin-2-yl)methoxy)-6-aminopyrimidin-4-yl)-5-fluoro-2-methylphenyl)-4-cyclopropyl-2-fluorobenzamide] the same measures were 4 nM and 134 nM.
Regarding `C=CC(=O)N1C[C@@H](C#N)C[C@H]1COc1c(N)ncnc1-c1cc(F)cc(NC(=O)c2ccc(C3CC3)cc2F)c1C` [Example 40, N-(3-(5-(((2S,4S)-1-Acryloyl-4-cyanopyrrolidin-2-yl)methoxy)-6-aminopyrimidin-4-yl)-5-fluoro-2-methylphenyl)-4-cyclopropyl-2-fluorobenzamide], the IC50 in assay [1] worked out at 2 nM; at Btk it was 80 nM.
